ChEMBL document CHEMBL3352247, “Synthesis and antimycobacterial evaluation of 5-alkylamino-N-phenylpyrazine-2-carboxamides” (Bioorg Med Chem, 2015)
Active and inactive are the calls of the source. The rule behind the calls is not given here.

What was measured:
[1] = test system: Lichtheimia corymbifera; assay: Antifungal activity against Absidia corymbifera 272 after 24 to 48 hrs by two-fold dilution method; type: functional, organism-based
[2] = test system: Staphylococcus aureus; assay: Antibacterial activity against methicillin-resistant Staphylococcus aureus H 5996/08 clinical isolate after 24 to 48 hrs by broth microdilution method; type: functional, organism-based
[3] = test system: Pichia kudriavzevii; assay: Antifungal activity against Candida krusei E28 after 24 to 48 hrs by two-fold dilution method; type: functional, organism-based
[4] = test system: Trichosporon asahii; assay: Antifungal activity against Trichosporon asahii 1188 after 24 to 48 hrs by two-fold dilution method; type: functional, organism-based
[5] = test system: Staphylococcus epidermidis; assay: Antibacterial activity against Staphylococcus epidermidis H 6966/08 clinical isolate after 24 to 48 hrs by broth microdilution method; type: functional, organism-based
[6] = test system: Staphylococcus aureus; assay: Antibacterial activity against Staphylococcus aureus CCM 4516/08 after 24 to 48 hrs by broth microdilution method; type: functional, organism-based
[7] = test system: Escherichia coli; assay: Antibacterial activity against Escherichia coli CCM 4517 after 24 to 48 hrs by broth microdilution method; type: functional, organism-based
[8] = test system: Pseudomonas aeruginosa; assay: Antibacterial activity against Pseudomonas aeruginosa CCM 1961 after 24 to 48 hrs by broth microdilution method; type: functional, organism-based
[9] = test system: Candida albicans; assay: Antifungal activity against Candida albicans ATCC 44859 after 24 to 48 hrs by two-fold dilution method; type: functional, organism-based
[10] = test system: Candida tropicalis; assay: Antifungal activity against Candida tropicalis 156 after 24 to 48 hrs by two-fold dilution method; type: functional, organism-based
[11] = test system: Enterococcus sp.; assay: Antibacterial activity against Enterococcus sp. J 14365/08 clinical isolate after 24 to 48 hrs by broth microdilution method; type: functional, organism-based
[12] = test system: Mycobacterium kansasii; assay: Antimycobacterial activity against Mycobacterium kansasii CNCTC My 235/80 in Middlebrook 7H9 broth after 5 days by AlamarBlue assay; type: functional; settings: CNCTC My 235/80, 120 h
[13] = test system: Klebsiella pneumoniae; assay: Antibacterial activity against ESBL-positive Klebsiella pneumoniae J 14368/08 clinical isolate after 24 to 48 hrs by broth microdilution method; type: functional, organism-based
[14] = test system: Klebsiella pneumoniae; assay: Antibacterial activity against Klebsiella pneumoniae D 11750/08 clinical isolate after 24 to 48 hrs by broth microdilution method; type: functional, organism-based
[15] = Antimycobacterial activity against Mycobacterium avium subsp. avium Chester CNCTC My 80/72 in Middlebrook 7H9 broth after 5 days by AlamarBlue assay; type: functional; settings: Chester CNCTC My 80/72, 120 h
[16] = test system: Mycobacterium tuberculosis; assay: Antimycobacterial activity against Mycobacterium tuberculosis H37Rv CNCTC My 331/88 in Middlebrook 7H9 broth after 5 days by AlamarBlue assay; type: functional; settings: H37Rv CNCTC My 331/88, 120 h
[17] = test system: Trichophyton mentagrophytes; assay: Antifungal activity against Trichophyton mentagrophytes 445 after 72 to 120 hrs by two-fold dilution method; type: functional, organism-based
[18] = test system: Aspergillus fumigatus; assay: Antifungal activity against Aspergillus fumigatus 231 after 24 to 48 hrs by two-fold dilution method; type: functional, organism-based
[19] = test system: Nakaseomyces glabratus; assay: Antifungal activity against Candida glabrata 20/I after 24 to 48 hrs by two-fold dilution method; type: functional, organism-based

| Compound | Activity [1] | Activity [2] | Activity [3] | Activity [4] | Activity [5] | Activity [6] | Activity [7] | Activity [8] | Activity [9] | Activity [10] | Activity [11] | MIC [12] | Activity [13] | Activity [14] | MIC [15] | MIC [16] | Activity [17] | Activity [18] | Activity [19] |
| --- | --- | --- | --- | --- | --- | --- | --- | --- | --- | --- | --- | --- | --- | --- | --- | --- | --- | --- | --- |
| O=C(Nc1ccccc1Cl)c1cnc(NCCCc2ccccc2)cn1 | inactive | inactive | inactive | inactive | inactive | inactive | inactive | inactive | inactive | inactive | inactive | > 100 µg/mL | inactive | inactive | > 100 µg/mL | > 100 µg/mL | inactive | inactive | inactive |
| O=C(Nc1ccccc1Cl)c1cnc(NCCCCCO)cn1 | inactive | inactive | inactive | inactive | inactive | inactive | inactive | inactive | inactive | inactive | inactive | > 100 µg/mL | inactive | inactive | > 100 µg/mL | > 100 µg/mL | inactive | inactive | inactive |
| O=C(Nc1ccccc1Cl)c1cnc(NCCCO)cn1 | inactive | inactive | inactive | inactive | inactive | inactive | inactive | inactive | inactive | inactive | inactive | > 100 µg/mL | inactive | inactive | > 100 µg/mL | > 100 µg/mL | inactive | inactive | inactive |
| O=C(Nc1ccccc1Cl)c1cnc(NCCCCO)cn1 | inactive | inactive | inactive | inactive | inactive | inactive | inactive | inactive | inactive | inactive | inactive | > 100 µg/mL | inactive | inactive | > 100 µg/mL | > 100 µg/mL | inactive | inactive | inactive |
| COCCCNc1cnc(C(=O)Nc2ccccc2)cn1 | inactive | inactive | inactive | inactive | inactive | inactive | inactive | inactive | inactive | inactive | inactive | > 100 µg/mL | inactive | inactive | > 100 µg/mL | 87.3 µM | inactive | inactive | inactive |
| Nc1cnc(C(=O)Nc2ccccc2Cl)cn1 | inactive | inactive | inactive | inactive | inactive | inactive | inactive | inactive | inactive | inactive | inactive | > 100 µg/mL | inactive | inactive | > 100 µg/mL | > 100 µg/mL | inactive | inactive | inactive |
| COCCNc1cnc(C(=O)Nc2ccccc2Cl)cn1 | inactive | inactive | inactive | inactive | inactive | inactive | inactive | inactive | inactive | inactive | inactive | > 100 µg/mL | inactive | inactive | > 100 µg/mL | > 100 µg/mL | inactive | inactive | inactive |
| COCCCNc1cnc(C(=O)Nc2ccccc2Cl)cn1 | inactive | inactive | inactive | inactive | inactive | inactive | inactive | inactive | inactive | inactive | inactive | > 100 µg/mL | inactive | inactive | > 100 µg/mL | > 100 µg/mL | inactive | inactive | inactive |
| O=C(Nc1ccccc1)c1cnc(NCCCc2ccccc2)cn1 | inactive | inactive | inactive | inactive | inactive | inactive | inactive | inactive | inactive | inactive | inactive | > 100 µg/mL | inactive | inactive | > 100 µg/mL | 75.2 µM | inactive | inactive | inactive |
| O=C(Nc1ccccc1)c1cnc(NCCCO)cn1 | inactive | inactive | inactive | inactive | inactive | inactive | inactive | inactive | inactive | inactive | inactive | > 100 µg/mL | inactive | inactive | > 100 µg/mL | > 100 µg/mL | inactive | inactive | inactive |
| O=C(Nc1ccccc1)c1cnc(NCCCCCO)cn1 | inactive | inactive | inactive | inactive | inactive | inactive | inactive | inactive | inactive | inactive | inactive | > 100 µg/mL | inactive | inactive | > 100 µg/mL | 41.6 µM | inactive | inactive | inactive |
